Article PMC4447455, “Towards Elucidating Carnosic Acid Biosynthesis in Lamiaceae: Functional Characterization of the Three First Steps of the Pathway in Salvia fruticosa and Rosmarinus officinalis” (PLoS ONE, 2015)

Columns and labels:
SfKSL [1] = target: T1, SfKSL (Salvia fruticosa, UniProt A0A0C5QH30); assay: coupled assay with SfCPS, GC-MS of product; assay type: biochemical; conditions: CDP formed in situ by SfCPS from 200 uM GGDP; pH 7.0, 20 mM MgCl2, 0.2 mM MnCl2, room temperature overnight
T1 construct: gene KSL; pseudomature SfKSLm without predicted N-terminal transit peptide (49 residues); full ORF 1755 bp; lacks gamma domain
T1 sequence (A0A0C5QH30 50-584): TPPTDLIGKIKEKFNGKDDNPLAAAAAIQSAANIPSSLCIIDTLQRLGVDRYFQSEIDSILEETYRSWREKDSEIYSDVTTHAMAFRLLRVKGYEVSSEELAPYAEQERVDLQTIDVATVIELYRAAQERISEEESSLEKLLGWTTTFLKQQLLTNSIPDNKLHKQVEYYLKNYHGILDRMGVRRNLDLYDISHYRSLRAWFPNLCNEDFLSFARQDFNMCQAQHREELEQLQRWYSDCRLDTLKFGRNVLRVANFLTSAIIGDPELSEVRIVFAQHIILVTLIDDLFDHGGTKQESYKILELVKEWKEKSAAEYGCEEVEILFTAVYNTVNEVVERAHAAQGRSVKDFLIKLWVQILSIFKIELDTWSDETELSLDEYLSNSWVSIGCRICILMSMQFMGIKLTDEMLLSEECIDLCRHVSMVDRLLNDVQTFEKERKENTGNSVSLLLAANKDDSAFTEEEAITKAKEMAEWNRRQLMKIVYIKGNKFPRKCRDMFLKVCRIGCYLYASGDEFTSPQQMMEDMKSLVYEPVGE

SfCPS = target: T2, SfCPS (Salvia fruticosa, UniProt A0A0A7RQ84); assay: GC-MS of dephosphorylated product (copalol); assay type: biochemical; conditions: pH 7.0, 20 mM MgCl2, 0.2 mM MnCl2, 60 uM GGDP, room temperature overnight
T2 construct: gene CDS; pseudomature SfCPSm without predicted N-terminal transit peptide (30 residues); full ORF 2391 bp
T2 sequence (A0A0A7RQ84 entry or part of it): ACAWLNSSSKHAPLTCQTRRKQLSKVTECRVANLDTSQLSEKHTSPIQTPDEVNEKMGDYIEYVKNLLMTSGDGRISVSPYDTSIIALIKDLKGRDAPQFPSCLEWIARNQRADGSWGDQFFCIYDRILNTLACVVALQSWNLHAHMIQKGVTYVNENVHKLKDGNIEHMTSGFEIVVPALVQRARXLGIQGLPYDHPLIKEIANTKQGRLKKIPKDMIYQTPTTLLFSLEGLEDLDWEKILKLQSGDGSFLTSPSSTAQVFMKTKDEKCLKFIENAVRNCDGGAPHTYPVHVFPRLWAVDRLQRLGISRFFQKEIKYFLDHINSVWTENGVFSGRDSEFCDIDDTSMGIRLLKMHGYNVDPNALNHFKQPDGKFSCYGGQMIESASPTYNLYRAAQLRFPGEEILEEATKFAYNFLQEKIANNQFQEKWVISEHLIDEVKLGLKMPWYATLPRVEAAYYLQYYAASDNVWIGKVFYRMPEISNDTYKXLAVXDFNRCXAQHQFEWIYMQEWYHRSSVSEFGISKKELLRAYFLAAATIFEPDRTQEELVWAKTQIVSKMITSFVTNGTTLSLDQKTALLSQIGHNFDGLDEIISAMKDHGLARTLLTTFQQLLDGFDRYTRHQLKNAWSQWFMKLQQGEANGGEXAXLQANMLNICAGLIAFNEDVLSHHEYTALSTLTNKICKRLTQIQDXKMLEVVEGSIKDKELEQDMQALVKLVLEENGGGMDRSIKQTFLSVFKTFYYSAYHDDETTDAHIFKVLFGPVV

SfFS = target: T3, SfFS (Salvia fruticosa, UniProt A0A0C5QRZ2); assay: yeast co-expression, GC-MS; assay type: cell-based; conditions: co-expressed SfCPS, SfKSL, PtCPR2; also shown in N. benthamiana
T3 construct: gene CYP76AH24; P450 ORF in pWTDH3, expressed in S. cerevisiae AM104 with SfCPSm, SfKSLm and poplar reductase PtCPR2; also N. benthamiana with AtCPR1
T3 sequence (A0A0C5QRZ2 1-492): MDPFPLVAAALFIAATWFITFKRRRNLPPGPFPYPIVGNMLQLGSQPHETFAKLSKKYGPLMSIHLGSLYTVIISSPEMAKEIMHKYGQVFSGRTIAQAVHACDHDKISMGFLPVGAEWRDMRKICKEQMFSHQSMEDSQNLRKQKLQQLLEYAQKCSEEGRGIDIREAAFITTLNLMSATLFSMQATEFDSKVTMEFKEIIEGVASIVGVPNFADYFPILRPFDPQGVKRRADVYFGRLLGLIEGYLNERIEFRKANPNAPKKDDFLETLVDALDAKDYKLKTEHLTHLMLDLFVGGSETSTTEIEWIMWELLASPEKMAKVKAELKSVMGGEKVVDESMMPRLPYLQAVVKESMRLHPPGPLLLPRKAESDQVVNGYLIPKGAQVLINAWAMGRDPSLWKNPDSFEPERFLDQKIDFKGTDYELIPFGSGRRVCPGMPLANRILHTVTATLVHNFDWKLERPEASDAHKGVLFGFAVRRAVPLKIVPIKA

RoFS1 = target: T4, RoFS1 (Salvia rosmarinus, UniProt A0A0C5Q4Y6); assay: yeast co-expression, GC-MS; assay type: cell-based; conditions: co-expressed RoCPS1m, RoKSL1f, PtCPR2; also shown in N. benthamiana
T4 construct: gene CYP76AH22; P450 ORF in pWTDH3, expressed in S. cerevisiae AM113 with RoCPS1m, RoKSL1f and poplar reductase PtCPR2; also N. benthamiana with SfCPS, SfKSL, AtCPR1
T4 sequence (A0A0C5Q4Y6 1-493): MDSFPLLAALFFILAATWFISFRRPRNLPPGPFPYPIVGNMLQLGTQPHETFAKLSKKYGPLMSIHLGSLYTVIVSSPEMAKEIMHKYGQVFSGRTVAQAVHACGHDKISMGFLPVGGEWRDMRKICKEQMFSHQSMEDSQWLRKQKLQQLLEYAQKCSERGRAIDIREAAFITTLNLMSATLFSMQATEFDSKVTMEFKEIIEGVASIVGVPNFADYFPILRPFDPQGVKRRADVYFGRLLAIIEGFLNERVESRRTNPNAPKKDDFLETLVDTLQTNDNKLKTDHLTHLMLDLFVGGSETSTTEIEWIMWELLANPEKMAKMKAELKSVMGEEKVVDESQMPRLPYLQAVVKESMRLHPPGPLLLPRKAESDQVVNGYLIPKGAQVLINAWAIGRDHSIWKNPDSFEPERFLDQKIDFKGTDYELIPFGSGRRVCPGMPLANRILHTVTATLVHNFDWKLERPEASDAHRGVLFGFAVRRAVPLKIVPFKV

RoFS2 = target: T5, RoFS2 (Salvia rosmarinus, UniProt A0A0C5QEW3); assay: yeast co-expression, GC-MS; assay type: cell-based; conditions: co-expressed RoCPS1m, RoKSL1f, PtCPR2; also shown in N. benthamiana
T5 construct: gene FS2; P450 ORF in pWTDH3, expressed in S. cerevisiae AM113 with RoCPS1m, RoKSL1f and poplar reductase PtCPR2; also N. benthamiana with SfCPS, SfKSL, AtCPR1
T5 sequence (A0A0C5QEW3 entry or part of it): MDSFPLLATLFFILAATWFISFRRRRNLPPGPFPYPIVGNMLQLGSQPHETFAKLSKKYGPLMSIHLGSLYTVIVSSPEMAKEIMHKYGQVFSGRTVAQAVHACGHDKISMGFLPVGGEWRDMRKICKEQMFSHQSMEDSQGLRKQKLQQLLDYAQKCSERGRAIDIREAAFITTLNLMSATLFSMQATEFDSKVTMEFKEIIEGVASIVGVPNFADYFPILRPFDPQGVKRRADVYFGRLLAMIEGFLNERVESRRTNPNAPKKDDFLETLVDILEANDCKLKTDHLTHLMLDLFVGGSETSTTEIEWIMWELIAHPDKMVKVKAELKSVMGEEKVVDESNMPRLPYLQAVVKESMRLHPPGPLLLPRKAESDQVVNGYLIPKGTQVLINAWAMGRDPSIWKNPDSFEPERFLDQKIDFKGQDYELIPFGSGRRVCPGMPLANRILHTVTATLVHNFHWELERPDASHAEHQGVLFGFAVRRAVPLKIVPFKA

SfKSL [2] = target: T1, SfKSL; assay: coupled assay with SfCPS, GC-MS; NMR of product from yeast; assay type: biochemical; conditions: CDP formed in situ by SfCPS from 200 uM GGDP; pH 7.0, 20 mM MgCl2, 0.2 mM MnCl2, room temperature overnight

## C=C1CC[C@H]2C(C)(C)CCC[C@]2(C)[C@H]1CC/C(C)=C/COP(=O)(O)OP(=O)(O)O [CDP]
SfKSL [1]
  coupled assay with SfCPS, GC-MS of product: simultaneously with SfCPS in order to provide the necessary CDP substrate
SfCPS; detected as copalol after alkaline phosphatase
  GC-MS of dephosphorylated product (copalol): identify the dephosphorylated product of the SfCPS catalyzed reaction as copalol

## CC(C)=CCC/C(C)=C/CC/C(C)=C/CC/C(C)=C/COP(=O)(O)OP(=O)(O)O [GGDP]
SfCPS
  GC-MS of dephosphorylated product (copalol): His-tagged SfCPS protein was affinity purified and incubated with GGDP

## CC(C)c1cc2c(cc1O)[C@@]1(C)CCCC(C)(C)[C@@H]1CC2 [ferruginol]
SfFS
  yeast co-expression, GC-MS: GC-MS revealed the formation of ferruginol in all three strains analyzed
RoFS1
  yeast co-expression, GC-MS: GC-MS revealed the formation of ferruginol in all three strains analyzed
RoFS2
  yeast co-expression, GC-MS: GC-MS revealed the formation of ferruginol in all three strains analyzed

## CC(C)C1=CCC2=C(CC[C@H]3C(C)(C)CCC[C@]23C)C1 [miltiradiene]
SfKSL [2]
  coupled assay with SfCPS, GC-MS; NMR of product from yeast: revealed a peak, which most closely corresponded to miltiradiene
